Results as given in US20240327351A1, “AMIDE AND ETHER SUBSTITUTED N-(1H-INDOL-7-YL)BENZENESULFONAMIDES AND USES THEREOF” (TRIANA BIOMEDICINES, INC., priority 2021, published 2024).

Legend:
DCAF15/RBM39 = DCAF15/RBM39 (Homo sapiens, UniProt Q14498+Q66K64); test: AlphaLISA compound-induced DCAF15-RBM39 ternary complex formation; format: binding; conditions: His-tagged DCAF15 complex and biotin-carrying RBM39
Method: Example 6: Quantitative Evaluation of Compound-Induced Ternary Complex Formation Using Amplified Luminescent Proximity Homogeneous Assay
Compound-induced DCAF15-RBM39 ternary complex formation was monitored using AlphaLISA® assays (Perkin Elmer, Waltham, MA). Test compounds were first collected in a 384-well microplate (cat. #781280, Grenier Bio-One, Monroe, NC) as 2 mM stocks in 100% dimethyl sulfoxide (DMSO). These stocks were then serially diluted in DMSO by 3-fold into a new plate (cat. #781280, Grenier Bio-One, Monroe, NC) using a Mosquito HTS dispenser (mosquito@ HTS, SPT Labtech, Boston, MA). 0.2 ul of these diluted stocks were then dispensed into a 384-well Optiplate (cat. #6007290, Perkin Elmer, Waltham, MA) in duplicate wells, to assemble the final assay plate consisting of duplicated dose ranges. Separately, a protein mixture consisting of His-tagged DCAF15 complex and biotin-carrying RBM39, each at 408 nM (2.04×), was prepared in 50 mM HEPES, pH 7.5, 100 mM NaCl, 2 mM MgCl2, 0.1% BSA, 2 mM TCEP, 0.05% Tween-20 (dilution buffer). 9.8 ul of this protein mixture was then mixed with the compounds in the assay plate and incubated for one hour at room temperature. Reaction mixtures with no compounds added were included as negative controls, while a His-tagged and biotinylated GST protein was included to track general assay performance. Nickel Chelate AlphaLISA Acceptor beads (cat. #AL108M, Perkin Elmer, MA) and AlphaScreen Streptavidin Donor beads (cat. #6760002, Perkin Elmer, Waltham, MA) were prepared separately in the dilution buffer as 4× stocks (80 ug/ml). The beads were then added to the assay plate sequentially with incubation at room temperature for 1-2 hours after each addition. Signals were recorded using EnVision 2104 Multilabel Plate Reader (Perkin Elmer, Waltham, MA) and titration curves were generated in GraphPad Prism (7.00, GraphPad, La Jolla, CA).

DCAF15 = DCAF15 (Homo sapiens, UniProt Q66K64); test: HTRF competition assay, binary interaction between compounds and DCAF15; format: binding; conditions: competition with Alexa Fluor 647 tracer, His-tagged DCAF15 complex
Method: Example 7: Measurement of Binary Interaction Between Compounds And DCAF15 Using Homogeneous Time Resolved Fluorescence (HTRF)
DCAF15 interactions with test compounds were monitored using HTRF competition assays (Cisbio, Bedford, MA). Test compounds were first collected in a 384-well microplate (cat. #781280, Grenier Bio-One, Monroe, NC) as 10 mM stocks in 100% dimethyl sulfoxide (DMSO). A second stock plate (cat. #781280, Grenier Bio-One, Monroe, NC) was prepared through 3-fold serial dilution in DMSO of the afore-mentioned stocks using a Mosquito HTS dispenser (mosquito@ HTS, SPT Labtech, Boston, MA). 0.2 ul of these diluted stocks were then dispensed into a 384-well Optiplate (cat. #6007290, Perkin Elmer, Waltham, MA) in duplicate wells, to assemble the assay plate. The tracer molecule containing an Alexa Fluor 647 probe was prepared in 25 mM HEPES pH 7.5, 100 mM NaCl, 0.1 mg/ml BSA, 0.005% Tween 20, 0.5 mM TCEP (dilution buffer) to 612 nM (2.04×). Separately, His-tagged DCAF15 complex was prepared at 32 nM (4×) in the dilution buffer, and mAb Anti-6His-Eu cryptate Gold (cat. #61H12KLA, Cisbio, Bedford, MA) at 4× dilution in the detection buffer (cat. #61 DB9RDF, Cisbio, Bedford, MA). These two solutions were mixed and incubated for 15 min at room temperature. 9.8 ul of the tracer solution and 10 ul of the DCAF15/mAb Anti-6His-Eu cryptate Gold mixture were added sequentially to each well in the assay plate. Reaction mixtures with no DCAF15 added were included as positive controls. The final mixture was incubated for an hour at room temperature and spun down briefly before data collection at 615 nm and 666 nm using En Vision 2104 Multilabel Plate Reader (Perkin Elmer, Bedford, MA). Binding was estimated based on ratiometric analysis and titration curves were generated in GraphPad Prism (7.00, GraphPad, La Jolla, CA).

Compound	EC50 (DCAF15/RBM39) [nM]	IC50 (DCAF15) [nM]
CN1C[C@@H](NC(=O)c2ccc(S(=O)(=O)Nc3ccc(Cl)c4c(Cl)c[nH]c34)c(F)c2)CCC1=O [Compound 159]	< 1000	< 1000
O=C(N[C@H]1CCCCNC1=O)c1cccc(S(=O)(=O)Nc2ccc(Cl)c3c(Cl)c[nH]c23)c1F [Compound 160]	< 1000	< 1000
O=C(N[C@H]1CCCCNC1=O)c1ccc(S(=O)(=O)Nc2ccc(Cl)c3c(Cl)c[nH]c23)c(F)c1 [Compound 161]	< 1000	< 1000
CC(C)(C)OC(=O)NC1(CNC(=O)c2cccc(S(=O)(=O)Nc3ccc(Cl)c4c(Cl)c[nH]c34)c2F)CC1 [Compound 162]	1000 to 10000	1000 to 10000
CC(C)(C)OC(=O)NC1(CNC(=O)c2ccc(S(=O)(=O)Nc3ccc(Cl)c4c(Cl)c[nH]c34)c(F)c2)CC1 [Compound 163]	1000 to 10000	1000 to 10000
O=C(NC[C@H]1Cc2ccccc21)c1cccc(S(=O)(=O)Nc2ccc(Cl)c3c(Cl)c[nH]c23)c1F [Compound 164]	1000 to 10000	1000 to 10000
O=C(NC[C@H]1Cc2ccccc21)c1ccc(S(=O)(=O)Nc2ccc(Cl)c3c(Cl)c[nH]c23)c(F)c1 [Compound 165]	> 100000	> 100000
O=C(NCC1CCN(CCCc2ccccc2)CC1)c1cccc(S(=O)(=O)Nc2ccc(Cl)c3c(Cl)c[nH]c23)c1F [Compound 166]	< 1000	1000 to 10000
O=C(NCC1CCN(CCCc2ccccc2)CC1)c1ccc(S(=O)(=O)Nc2ccc(Cl)c3c(Cl)c[nH]c23)c(F)c1 [Compound 167]	< 1000	< 1000
CC(C)C(=O)Nc1cccc(CNC(=O)c2cccc(S(=O)(=O)Nc3ccc(Cl)c4c(Cl)c[nH]c34)c2F)c1 [Compound 168]	1000 to 10000	1000 to 10000
CC(C)C(=O)Nc1cccc(CNC(=O)c2ccc(S(=O)(=O)Nc3ccc(Cl)c4c(Cl)c[nH]c34)c(F)c2)c1 [Compound 169]	1000 to 10000	1000 to 10000
CCN(CC)C(=O)c1ccc(CNC(=O)c2cccc(S(=O)(=O)Nc3ccc(Cl)c4c(Cl)c[nH]c34)c2F)cc1 [Compound 170]	1000 to 10000	1000 to 10000
CCN(CC)C(=O)c1ccc(CNC(=O)c2ccc(S(=O)(=O)Nc3ccc(Cl)c4c(Cl)c[nH]c34)c(F)c2)cc1 [Compound 171]	1000 to 10000	1000 to 10000
Cc1ccccc1Oc1ccccc1CNC(=O)c1cccc(S(=O)(=O)Nc2ccc(Cl)c3c(Cl)c[nH]c23)c1F [Compound 172]	1000 to 10000	1000 to 10000
Cc1ccccc1Oc1ccccc1CNC(=O)c1ccc(S(=O)(=O)Nc2ccc(Cl)c3c(Cl)c[nH]c23)c(F)c1 [Compound 173]	> 100000	> 100000
Cc1cc(CNC(=O)c2cccc(S(=O)(=O)Nc3ccc(Cl)c4c(Cl)c[nH]c34)c2F)nn1C [Compound 174]	< 1000	1000 to 10000
Cc1cc(CNC(=O)c2ccc(S(=O)(=O)Nc3ccc(Cl)c4c(Cl)c[nH]c34)c(F)c2)nn1C [Compound 175]	< 1000	1000 to 10000
CCc1nc(CN(C)C(=O)c2cccc(S(=O)(=O)Nc3ccc(Cl)c4c(Cl)c[nH]c34)c2F)no1 [Compound 176]	< 1000	1000 to 10000

Compound	EC50 (DCAF15/RBM39) [nM]	IC50 (DCAF15) [nM]
CCc1nc(CN(C)C(=O)c2ccc(S(=O)(=O)Nc3ccc(Cl)c4c(Cl)c[nH]c34)c(F)c2)no1 [Compound 177]	< 1000	1000 to 10000
Cc1ccnc(CNC(=O)c2cccc(S(=O)(=O)Nc3ccc(Cl)c4c(Cl)c[nH]c34)c2F)c1 [Compound 178]	1000 to 10000	1000 to 10000
Cc1ccnc(CNC(=O)c2ccc(S(=O)(=O)Nc3ccc(Cl)c4c(Cl)c[nH]c34)c(F)c2)c1 [Compound 179]	< 1000	1000 to 10000
Cc1ccnc([C@@H](NC(=O)c2ccc(S(=O)(=O)Nc3ccc(Cl)c4c(Cl)c[nH]c34)c(F)c2)C2CC2)c1 [Compound 180]	1000 to 10000	1000 to 10000
COc1cccc(Oc2ccc(CNC(=O)c3cccc(S(=O)(=O)Nc4ccc(Cl)c5c(Cl)c[nH]c45)c3F)cn2)c1 [Compound 181]	1000 to 10000	1000 to 10000
COc1cccc(Oc2ccc(CNC(=O)c3ccc(S(=O)(=O)Nc4ccc(Cl)c5c(Cl)c[nH]c45)c(F)c3)cn2)c1 [Compound 182]	> 100000	> 100000
Cc1cnc(CNC(=O)c2cccc(S(=O)(=O)Nc3ccc(Cl)c4c(Cl)c[nH]c34)c2F)cn1 [Compound 183]	< 1000	1000 to 10000
Cc1cnc(CNC(=O)c2ccc(S(=O)(=O)Nc3ccc(Cl)c4c(Cl)c[nH]c34)c(F)c2)cn1 [Compound 184]	> 100000	< 1000
Cc1ccnc([C@@H](NC(=O)c2cccc(S(=O)(=O)Nc3ccc(Cl)c4c(Cl)c[nH]c34)c2F)C2CC2)c1 [Compound 185]	1000 to 10000	1000 to 10000
O=C(NCCOCC1CC1)c1cccc(S(=O)(=O)Nc2ccc(Cl)c3c(Cl)c[nH]c23)c1F [Compound 186]	1000 to 10000	1000 to 10000
O=C(NCCOCC1CC1)c1ccc(S(=O)(=O)Nc2ccc(Cl)c3c(Cl)c[nH]c23)c(F)c1 [Compound 187]	< 1000	1000 to 10000
O=C(NCCOC1CCS(=O)(=O)CC1)c1cccc(S(=O)(=O)Nc2ccc(Cl)c3c(Cl)c[nH]c23)c1F [Compound 188]	< 1000	1000 to 10000
O=C(NCCOC1CCS(=O)(=O)CC1)c1ccc(S(=O)(=O)Nc2ccc(Cl)c3c(Cl)c[nH]c23)c(F)c1 [Compound 189]	< 1000	< 1000
CCS(=O)(=O)CCNC(=O)c1cccc(S(=O)(=O)Nc2ccc(Cl)c3c(Cl)c[nH]c23)c1F [Compound 190]	< 1000	1000 to 10000
CCS(=O)(=O)CCNC(=O)c1ccc(S(=O)(=O)Nc2ccc(Cl)c3c(Cl)c[nH]c23)c(F)c1 [Compound 191]	< 1000	< 1000
CN1CC(CCNC(=O)c2cccc(S(=O)(=O)Nc3ccc(Cl)c4c(Cl)c[nH]c34)c2F)C1 [Compound 192]	< 1000	< 1000
CN1CC(CCNC(=O)c2ccc(S(=O)(=O)Nc3ccc(Cl)c4c(Cl)c[nH]c34)c(F)c2)C1 [Compound 193]	< 1000	1000 to 10000
CN(C)C(=O)c1ccc(CCNC(=O)c2cccc(S(=O)(=O)Nc3ccc(Cl)c4c(Cl)c[nH]c34)c2F)cc1 [Compound 194]	1000 to 10000	1000 to 10000
